Calls of active or inactive are those of the source.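 The calls were made as follows: active = more than half of replicate measurements showing over 20% loss of kinase signal relative to plate controls; inconclusive = some but at most half of replicates over 20% loss; inactive = no replicate over 20% signal loss.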
target: Glycogen synthase kinase-3 alpha (Homo sapiens) (UniProt P49840); assay: concentration-response blocking of human GSK3A – biochemical, luminescence, cell-free homogeneous, retest, dose response (AID 463203); conditions: GSK-3 alpha enzyme, ADP-Glo luminescence, 60 min
Sequence (P49840 whole entry, looked up): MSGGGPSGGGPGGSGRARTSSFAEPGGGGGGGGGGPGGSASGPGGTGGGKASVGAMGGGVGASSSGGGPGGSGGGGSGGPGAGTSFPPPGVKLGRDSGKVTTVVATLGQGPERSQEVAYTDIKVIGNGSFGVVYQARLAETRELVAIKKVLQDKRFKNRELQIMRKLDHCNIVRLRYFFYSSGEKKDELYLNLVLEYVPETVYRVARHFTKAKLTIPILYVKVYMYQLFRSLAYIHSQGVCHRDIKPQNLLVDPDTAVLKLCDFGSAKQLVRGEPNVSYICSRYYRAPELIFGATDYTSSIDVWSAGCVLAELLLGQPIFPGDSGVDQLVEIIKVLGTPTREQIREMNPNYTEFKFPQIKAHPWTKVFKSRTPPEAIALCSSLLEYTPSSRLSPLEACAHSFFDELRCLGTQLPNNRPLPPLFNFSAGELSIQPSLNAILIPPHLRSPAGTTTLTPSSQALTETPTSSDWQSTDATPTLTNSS

SMILES	AC50
C=CCSc1ncnc2c1oc1nc3c(cc12)COC(C)(C)C3	> 30 µM (inactive)
Fc1ccc(-c2nnc3ccc(N4CCCC4)nn23)cc1	5.64 µM
CCCCCCN=C(C)c1c(O)n(CCCC)c(=O)[nH]c1=O	> 30 µM (inactive)
Cc1oc2c(Cl)c(Cl)c(O)c(CN(C)C)c2c1C(=O)c1ccc(Cl)cc1	7.71 µM
Cc1cc(N2CCN(c3ccccc3)CC2)n2c(n1)nc1ccccc12	4.33 µM
Brc1ccccc1C1=Nn2c(nnc2-c2ccccc2)SC1	> 30 µM (inactive)
COc1ccc(C(=O)O/N=C(\N)c2ccccn2)c(OC)c1	> 30 µM (inactive)
COc1cccc2c1C(=O)O/C2=C/c1ccc2c(c1)OCO2	> 30 µM (inactive)
CC(=O)Nc1ccc(NC(=O)c2cc(-n3cnnc3)ccc2Cl)cc1	> 30 µM (inactive)
CC1=CC(=C2C(=O)c3ccccc3C2=O)C=C(C)N1Cc1ccco1	> 30 µM (inactive)
Cc1cc(=O)[nH]c2c(C)c(Cl)ccc12	> 30 µM (inactive)
Cc1ccccc1/C=N/Nc1nc2ccccc2[nH]1	> 30 µM (inactive)
O=C(O)COc1ccc2c(c1)O/C(=C\c1cccs1)C2=O	26.2 µM
CCc1c(C)c(C#N)c2nc3ccccc3n2c1NCC1CCCO1 (stereo not given)	12.6 µM
COc1cccc(NC(=O)c2nnn(Cc3ccc(Br)cc3F)c2N)c1	11.1 µM
Nc1c(C(=O)O)cnc2c(-c3ccc(Cl)cc3)cnn12	15.8 µM
CCOC(=O)c1cc(-c2ccc(C)cc2)n(CCC(=O)NC(C)CC)c1C (stereo not given)	> 30 µM (inactive)
CCOC(=O)c1nnn(-c2nonc2N)c1COc1c(C=O)cccc1OC	4.32 µM
CCOc1c(O)ccc(/C=C2\SC(=S)NC2=O)c1[N+](=O)[O-]	20.8 µM
CC(C)(C)OC(=O)N1CCC(NC(=O)c2[nH]cnc2C(=O)Nc2ccon2)CC1	4.47 µM
O=C(Cc1c(F)cccc1Cl)Nc1ncc([N+](=O)[O-])s1	2.43 µM
CCSc1nc2c(c(=O)[nH]1)C(c1ccccn1)C1=C(CC(C)(C)CC1=O)N2 (stereo not given)	> 30 µM (inactive)
O=c1ccc(-c2nc3ccccc3n2Cc2ccc(Cl)cc2)c[nH]1	> 30 µM (inactive)
O=C(CN(Cc1ccco1)C(=O)CCC(=O)Nc1ccccn1)NCc1ccccc1	> 30 µM (inactive)
COc1ccc(NC(=O)c2nnn(Cc3cccc(F)c3)c2N)c(OC)c1	> 30 µM (inactive)
COc1ccc(/C=N/NC(=O)c2nnn(-c3nonc3N)c2-c2cccs2)c(OC)c1	1.04 µM
COc1ccc(CC(=O)Oc2cc(C)ccc2C)cc1	> 30 µM (inactive)
O=[N+]([O-])c1cnccc1NC1CCCCC1	> 30 µM (inactive)

SMILES	AC50
CCCOc1ccccc1NC(=O)Nc1ccccc1Cl	> 30 µM (inactive)
CCN(C(=O)C1CCCN1S(=O)(=O)c1cccc2nsnc12)c1ccccc1 (stereo not given)	23.9 µM
CCCCNc1nc(N)nc(-c2cc(Cl)ccc2O)n1	3.04 µM
CC1CC(=O)c2cnc(NCC3CCCO3)nc2C1 (stereo not given)	> 30 µM (inactive)
COc1ccc(-n2c(C)nc(N)c2C(=O)c2ccccc2)cc1	> 30 µM (inactive)
CCOc1cccc(-c2c(C(=O)N/N=C/c3sccc3C)nnn2-c2nonc2N)c1	> 30 µM (inactive)
CC(C)(C)c1ccc(/C=C2\Oc3cc(O)ccc3C2=O)cc1	> 30 µM (inactive)
Nc1ncnc2nc(SCc3ccc(Cl)cc3Cl)[nH]c12	> 30 µM (inactive)
COc1ccccc1NC(=O)CSc1ccc2nnc(-c3ccc(C)cc3)n2n1	19.2 µM
COc1cccc(/C=N/n2cncn2)c1OCC#N	> 30 µM (inactive)
NS(=O)(=O)c1ccc(-c2ccc(/C=C3\SC(=O)NC3=O)o2)cc1	5.29 µM
Cc1sc2nc(SCC(=O)Nc3ccc(S(=O)(=O)NCCCC(=O)O)cc3)[nH]c(=O)c2c1C	7.13 µM
CCCCc1ccc(NC(=O)N[C@@H](C)C(=O)O)cc1	> 30 µM (inactive)
COc1ccc(Nc2nc(S(=O)(=O)c3ccc(C)cc3)c(Cl)s2)cc1	> 30 µM (inactive)
CC1CCN(Cc2c(C(=O)N/N=C/c3cccc(Cl)c3)nnn2-c2nonc2N)CC1	2.73 µM
Nc1ncnc2c1ncn2[C@@H]1O[C@H](CNCc2ccccc2)[C@@H](O)[C@H]1O	> 30 µM (inactive)
Cc1cccc2c(N=Nc3ccccc3)c(O)[nH]c12	> 30 µM (inactive)
O=C(NCCCN1CCN(Cc2ccccc2Cl)CC1)Nc1ccccc1	> 30 µM (inactive)
C/C(=C/c1oc2ccc(O)cc2c1[N+](=O)[O-])N(C)C	> 30 µM (inactive)
O=C(CNCC1CCCO1)Nc1ccc([N+](=O)[O-])cc1C(=O)Nc1ccccc1F (stereo not given)	> 30 µM (inactive)
CCCCOC(=O)C1=C(C)Nc2ncnn2C1c1cc(OC)ccc1OC (stereo not given)	> 30 µM (inactive)
O=C1C(SCCO)=C(SCCO)C(=O)c2ccccc21	> 30 µM (inactive)
N#Cc1cc(Cl)c(NCC2CCCO2)cc1C#N (stereo not given)	> 30 µM (inactive)
N#Cc1c(-c2ccccc2)nc(SCc2ccc(Cl)cc2)[nH]c1=O	> 30 µM (inactive)
Cc1cc(N/N=C/c2ccccc2Br)nc2ccccc12	> 30 µM (inactive)
O=C(Nc1sc2c(c1C(=O)O)CCC2)c1cccs1	> 30 µM (inactive)
Cc1ccc(N=Nc2c(O)[nH]c3ccc(F)cc23)cc1	> 30 µM (inactive)

Reference: PubChem BioAssay AID463203 (Broad Institute, 2010)
